For one experiment, the target named is T1, PAF receptor (Oryctolagus cuniculus, UniProt G1TEI7).
T1 construct: endogenous in cells; host or cells: rabbit platelets (male New Zealand White)
Description: Inhibition of PAF-induced aggregation in rabbit platelet rich plasma. The class given is cell-based, rabbit (male New Zealand White). Conditions: rabbit platelet rich plasma; PAF challenge 5E-8M; number of experiments in parentheses; read-out: IC50 inhibition of PAF-induced aggregation. In a few lines: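 Rabbit citrated PRP adjusted to ~400,000-500,000 platelets/μl; test compound preincubated 5 min at 37 °C before PAF challenge (final 5E-8M or 1E-7M). Aggregation followed 5 min by light transmission, screening at 1E-5M; magnitude of aggregation compared with diluent controls run in parallel.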

A further experiment has as its system PAF induced lethality. Briefly: PAF induced lethality in mice. The class given is in vivo. Conditions: I.P. 10 mg/kg; corrected for control lethality. The procedure:
PAF given I.V. to mice causes an immediate hypotensive shock leading to death in 1 hour or less. Compounds were given intraperitoneally or P.O. at various times before the PAF challenge. Animals alive after 2 hours were counted and the activity of test compounds expressed as % survival corrected for any control (saline treated) animals which survived the PAF challenge.

Experiment [1] concerns endotoxin induced mortality. Description: Endotoxin induced shock and mortality in mice. The class given is in vivo, mouse (male Balb/c). The text has this:
The test compounds (PAF antagonists) were also efficacious when administered iv prior to a lethal iv injection of endotoxin (Table IX).

Counter-ions that a name gives are not always drawn.

T1 sequence (G1TEI7 1-342): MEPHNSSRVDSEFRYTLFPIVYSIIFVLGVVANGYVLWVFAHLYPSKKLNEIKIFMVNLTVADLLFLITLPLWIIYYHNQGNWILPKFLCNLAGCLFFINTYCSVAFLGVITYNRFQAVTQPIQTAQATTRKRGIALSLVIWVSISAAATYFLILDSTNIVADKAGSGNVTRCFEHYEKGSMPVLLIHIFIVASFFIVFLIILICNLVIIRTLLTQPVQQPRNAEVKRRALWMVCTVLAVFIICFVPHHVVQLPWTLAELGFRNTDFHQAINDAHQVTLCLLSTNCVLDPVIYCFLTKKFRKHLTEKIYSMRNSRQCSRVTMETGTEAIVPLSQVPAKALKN

As to `CCCCCCCCCCCCCCOc1cccc(OP(=O)([O-])Oc2cccc(C[n+]3csc(C)c3)c2)c1OC` [3-[[3-[[Hydroxy[2-methoxy-3-(tetradecyloxy)phenoxy]-phosphinyl]oxy]phenyl]methyl]-5-methyl-thiazolium, hydroxide, inner salt], at PAF receptor, the IC50 was found to be 2510 nM. Besides, the “PAF induced lethality, % protection” value in the experiment with PAF induced lethality stood at 17%. The “24 hour survival, treated” value in experiment [1] (40 mg/kg IP 2 hours prior to IP endotoxin) is 13/50. Besides, in experiment [1] (Table IX, 20 mg/kg iv prior to iv endotoxin, footnote prints IP, control 3/40), the “Survival after 24 hrs., treated” value is 14/40.

A word on the IC50: it is the midpoint of a concentration-inhibition curve.

Source of the values: US5231091A, “Bis-arylphosphate ester antagonists of platelet activating factor” (priority 1992, dated 1993).
